Source: PubChem BioAssay (NCI)
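Following 48 hours of exposure in 96-well plates, responses at five concentrations were used to interpolate endpoints linearly. TGI is the concentration that stops growth completely.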

Key:
Assay in all cases: NCI anticancer screen, dose series, 48 h
[1] = test system: A549 NSCLC
[2] = test system: CAKI-1 renal
[3] = test system: EKVX NSCLC
[4] = test system: HCC-2998 colon
[5] = test system: HCT-116 colon
[6] = test system: HOP-92 NSCLC
[7] = test system: IGROV1 ovarian
[8] = test system: K-562 leukemia
[9] = test system: LOX IMVI melanoma
[10] = test system: MALME-3M melanoma
[11] = test system: MOLT-4 leukemia
[12] = test system: NCI-H460 lung
[13] = test system: SF-295 CNS
[14] = test system: SK-OV-3 ovarian
[15] = test system: SNB-19 CNS
[16] = test system: SR leukemia
[17] = test system: SW-620 colon
[18] = test system: TK-10 renal
[19] = test system: U251 CNS
[20] = test system: UO-31 renal

| SMILES | TGI [1] [µM] | TGI [2] [µM] | TGI [3] [µM] | TGI [4] [µM] | TGI [5] [µM] | TGI [6] [µM] | TGI [7] [µM] | TGI [8] [µM] | TGI [9] [µM] | TGI [10] [µM] | TGI [11] [µM] | TGI [12] [µM] | TGI [13] [µM] | TGI [14] [µM] | TGI [15] [µM] | TGI [16] [µM] | TGI [17] [µM] | TGI [18] [µM] | TGI [19] [µM] | TGI [20] [µM] |
| --- | --- | --- | --- | --- | --- | --- | --- | --- | --- | --- | --- | --- | --- | --- | --- | --- | --- | --- | --- | --- |
| Cn1c(=O)c(C#N)c(O)c2cc3ccccc3nc21 | > 100 | > 100 | > 100 | > 100 | > 100 | > 100 | > 100 | > 100 | > 100 | > 100 | > 100 | > 100 | > 100 | > 100 | > 100 | > 100 | > 100 | > 100 | > 100 | > 100 |
| Cc1c(N(Cc2ccccc2)Cc2ccccc2)nc(S(C)(=O)=O)nc1S(C)(=O)=O | 29 | 20.2 | 3.01 | 3.2 | 3.02 | 8.4 | 3.21 | 4.83 | 3.24 | 17.6 | 4.76 | 22.1 | 31.5 | 27.7 | 26.1 | 4.18 | 3.61 | 15.7 | 6.64 | 24.7 |
| COc1cc(O)c2c(=O)c(O)c(-c3ccc(O)c(O)c3)oc2c1 | 50.3 | 15.6 | > 100 | 34.1 | 45.5 | 45.1 | > 100 | > 100 | 31.9 | 69.3 | > 100 | 20.6 | 72.3 | 56.9 | > 100 | > 100 | 53.7 | 63.1 | 24.7 | 42.1 |
